Laboratory results as given in patent US20240025880A1 (CHIESI FARMACEUTICI S.P.A., priority 2020, published 2024).
Like-named read-outs stand apart in the source and are kept apart here.

Molecular target: T1, h P2X3 (Homo sapiens, UniProt P56373)
T1 sequence (P56373 1-397): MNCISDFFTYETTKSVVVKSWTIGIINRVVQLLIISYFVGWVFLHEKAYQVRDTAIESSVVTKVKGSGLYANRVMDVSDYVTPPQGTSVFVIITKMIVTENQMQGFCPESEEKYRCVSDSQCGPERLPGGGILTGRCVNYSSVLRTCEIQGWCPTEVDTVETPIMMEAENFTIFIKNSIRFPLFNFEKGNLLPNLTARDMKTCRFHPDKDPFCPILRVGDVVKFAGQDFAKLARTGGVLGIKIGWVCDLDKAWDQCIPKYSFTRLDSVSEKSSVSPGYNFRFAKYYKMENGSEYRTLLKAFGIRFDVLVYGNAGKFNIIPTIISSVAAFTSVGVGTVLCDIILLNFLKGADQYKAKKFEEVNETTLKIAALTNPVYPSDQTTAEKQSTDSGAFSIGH
Assay: In vitro electrophysiology assay for P2X3 (automated whole-cell patch clamp, α,β-MeATP agonist)
Type: cell-based
Description: In Vitro Electrophysiology Assay for P2X3
Cells expressing P2X3 receptors were grown according to standard practice and maintained at 37° C. in a 5% humidified CO2 atmosphere. The cells were seeded into T175 flask 2 days prior to the day of the assay and dissociated from the flasks using TrypLE when grown to confluence of 80-90%. The dissociated cells were resuspended in serum free media at a cell density of 3×10^6 cells/ml and loaded onto the Sophion Qube automated patch-clamp system. The extracellular assay buffer contained 145 mM NaCl, 4 mM KCl, 2 mM CaCl2, 1 mM MgCl2, 10 mM HEPES, and 10 mM glucose at pH 7.4. The intracellular assay solution contained 140 mM CsF, 10 mM NaCl, 10 mM EGTA, 10 mM HEPES at pH 7.2. Agonist stock solutions were prepared in H2O and diluted in bath solution prior to use. All antagonists were prepared as 10 mM stock solutions in DMSO and diluted in bath solution prior to use. All experiments were performed under the whole-cell patch clamp configuration at room temperature with 384 individual cells being voltage clamped at −60 mV simultaneously on the Sophion Qube instrument. Two baseline responses were established with the application of α,β-MeATP (800 nM), with the subsequent agonist applications being washed out using extracellular assay buffer containing 0.5 U/ml apyrase. Following the second agonist application, antagonist was incubated in the absence of α,β-MeATP for 10 minutes. After antagonist preincubation, 800 nM α,β-MeATP and antagonist were co-administered to determine the inhibitory effect of the antagonist. One concentration of an antagonist was assessed against a single cell, with different concentrations of the antagonist applied to other cells on the 384 recording substrate. The control P2X3 current amplitude was taken from the peak current amplitude from the second agonist response prior to preincubation with antagonist. The peak P2X3 current amplitude in the presence of antagonist was used to calculate the inhibitory effect at each concentration of the antagonist according to the following equation:
Percentage inhibition of P2X3=(P2X3 control peak amplitude−P2X3 antagonist peak amplitude)/P2X3 control peak amplitude)*100
Concentration-response curves were constructed from ten different concentrations with each concentration of antagonist tested on at least two individual cells. The concentration of the antagonist to inhibit P2X3 current by 50% (IC50) was determined by fitting the data with the following equation:
Y=a+[(b−a)/(1+10^((log c−x)d)]
Where ‘a’ is minimum response, ‘b’ is maximum response, ‘c’ is IC50 and ‘d’ is Hill slope.

[1] = Table 2, 800 nM α,β-MeATP, peak current, read-out: h P2X3 (pIC50 range of activity) (converted)

Row | IC50 [1] | IC50 (comparative example, read-out: activity on receptor P2X3 expressed as pIC50 (converted)) | Compound
1 | 0.316 to 3.16 µM |  | COC(=O)N1CCC(COc2cc(-c3ccc(F)cc3)cc3c(NCc4ccc(C)nn4)ncnc23)C1 (stereo not drawn) [Example 67, Methyl 3-[[6-(4-fluorophenyl)-4-[(6-methylpyridazin-3-yl)methylamino]quinazolin-8-yl]oxymethyl]pyrrolidine-1-carboxylate]
2 |  | > 31.6 µM | O=C(NC1CCOc2ccc(-c3ccc(F)cc3)cc21)c1cnc(C(F)(F)F)nc1 (stereo not drawn) [comparative Example A, N-(6-(4-fluorophenyl)chroman-4-yl)-2-(trifluoromethyl)pyrimidine-5-carboxamide, reference compound]
3 | < 0.316 µM |  | Cc1ccc(CNc2ncnc3c(OCc4noc(C)n4)cc(-c4ccc(F)cc4)cc23)nn1 [Example 58, 6-(4-fluorophenyl)-8-[(5-methyl-1,2,4-oxadiazol-3-yl)methoxy]-N-[(6-methylpyridazin-3-yl)methyl]quinazolin-4-amine]
4 | < 0.316 µM |  | CCc1noc(COc2cc(-c3ccc(F)cc3)cc3c(NCc4ccc(C)nn4)ncnc23)n1 [Example 59, 8-[(3-ethyl-1,2,4-oxadiazol-5-yl)methoxy]-6-(4-fluorophenyl)-N-[(6-methylpyridazin-3-yl)methyl]quinazolin-4-amine]
5 | 0.316 to 3.16 µM |  | C[C@@H](Nc1ncnc2c(OCC3(C(=O)O)CCCCC3)cc(-c3ccc(F)cc3)cc12)c1cnc(C(F)(F)F)nc1 [Example 48, (R)-1-(((6-(4-fluorophenyl)-4-((1-(2-(trifluoromethyl)pyrimidin-5-yl)ethyl)amino)quinazolin-8-yl)oxy)methyl)cyclohexane-1-carboxylic acid]
6 | 0.316 to 3.16 µM |  | C[C@@H](Nc1ncnc2c(OC3CCN(CC(F)(F)F)CC3)cc(-c3ccc(F)cc3)cc12)c1cnc(C(F)(F)F)nc1 [Example 36]
7 | < 0.316 µM |  | Cc1ccc(CNc2ncnc3c(OCc4ncco4)cc(-c4ccc(F)cc4)cc23)nn1 [Example 57, 6-(4-fluorophenyl)-N-[(6-methylpyridazin-3-yl)methyl]-8-(oxazol-2-ylmethoxy)quinazolin-4-amine]
8 | < 0.316 µM |  | Cc1ccc(CNc2ncnc3c(OCC4(C)COC4)cc(-c4ccc(F)cc4)cc23)nn1 [Example 50, 6-(4-fluorophenyl)-8-[(3-methyloxetan-3-yl)methoxy]-N-[(6-methylpyridazin-3-yl)methyl]quinazolin-4-amine]
9 | < 0.316 µM |  | Cc1ccc(CNc2ncnc3c(OCc4nnc(C5CC5)s4)cc(-c4ccc(F)cc4)cc23)nn1 [Example 60, 8-[(5-cyclopropyl-1,3,4-thiadiazol-2-yl)methoxy]-6-(4-fluorophenyl)-N-[(6-methylpyridazin-3-yl)methyl]quinazolin-4-amine]
10 | 0.316 to 3.16 µM |  | COC(=O)N1CCCC(COc2cc(-c3ccc(F)cc3)cc3c(NCc4ccc(C)nn4)ncnc23)C1 (stereo not drawn) [Example 66, Methyl 3-[6-(4-fluorophenyl)-4-[(6-methylpyridazin-3-yl)methylamino]quinazolin-8-yl]oxymethyl]piperidine-1-carboxylate]
11 | < 0.316 µM |  | Cc1cnc(-c2cc(OCC(=O)NS(=O)(=O)c3ccccc3)c3ncnc(NCc4ccc(C)nn4)c3c2)nc1 [Example 49, Ammonium (2-((4-(((6-methylpyridazin-3-yl)methyl)amino)-6-(5-methylpyrimidin-2-yl)quinazolin-8-yl)oxy)acetyl)(phenylsulfonyl) amide]
12 | 0.316 to 3.16 µM |  | Cc1ccc(CNc2ncnc3c(OC4CN(C(=O)OC(C)(C)C)C4)cc(-c4ccc(F)cc4)cc23)nn1 [Example 52, tert-butyl 3-[6-(4-fluorophenyl)-4-[(6-methylpyridazin-3-yl)methylamino]quinazolin-8-yl]oxyazetidine-1-carboxylate]
13 | 0.316 to 3.16 µM |  | Cc1ccc(CNc2ncnc3c(OCC4(C(F)(F)F)CC4)cc(-c4ccc(F)cc4)cc23)nn1 [Example 51, 6-(4-fluorophenyl)-N-[(6-methylpyridazin-3-yl)methyl]-8-[[1-(trifluoromethyl)cyclopropyl]methoxy]quinazolin-4-amine]

More lines, now with the values behind:

Row | Compound | IC50 [1] | IC50 (comparative example, read-out: activity on receptor P2X3 expressed as pIC50 (converted))
14 | CC(=O)N[C@H]1CC[C@@H](Oc2cc(-c3ccc(F)cc3)cc3c(N[C@H](C)c4cnc(C(F)(F)F)nc4)ncnc23)CC1 [Example 32, N-((1S,4s)-4-((6-(4-fluorophenyl)-4-(((R)-1-(2-(trifluoromethyl)pyrimidin-5-yl)ethyl)amino)quinazolin-8-yl)oxy)cyclohexyl)acetamide] | 0.316 to 3.16 µM | 
15 | Cc1nnc(C(C)Nc2ncnc3c(S(=O)(=O)N4CCC(F)(F)C4)cc(-c4ccc(F)cc4)cc23)s1 (stereo not drawn) [Example 18, 8-((3,3-difluoropyrrolidin-1-yl)sulfonyl)-6-(4-fluorophenyl)-N-(1-(5-methyl-1,3,4-thiadiazol-2-yl)ethyl)quinazolin-4-amine] | 0.316 to 3.16 µM | 
16 | Cc1ccc([C@@H](C)Nc2ncnc3c(S(=O)(=O)N(C)C)cc(-c4ccc(F)cc4)cc23)nn1 [Example 13, (R)-6-(4-fluorophenyl)-N,N-dimethyl-4-((1-(6-methylpyridazin-3-yl)ethyl)amino)quinazoline-8-sulfonamide] | < 0.316 µM | 
17 | Cc1nc([C@@H](C)Nc2ncnc3c(S(=O)(=O)N4CCC(O)CC4)cc(-c4ccc(F)cc4)cc23)no1 [Example 20, (R)-1-((6-(4-fluorophenyl)-4-((1-(5-methyl-1,2,4-oxadiazol-3-yl)ethyl)amino)quinazolin-8-yl)sulfonyl)piperidin-4-ol] | < 0.316 µM | 
18 | C[C@@H](Nc1ncnc2c(OC3CCN(CC(F)(F)F)C3)cc(-c3ccc(F)cc3)cc12)c1cnc(C(F)(F)F)nc1 (stereo partly drawn) [Example 33, 6-(4-fluorophenyl)-8-((1-(2,2,2-trifluoroethyl)pyrrolidin-3-yl)oxy)-N-((R)-1-(2-(trifluoromethyl)pyrimidin-5-yl)ethyl)quinazolin-4-amine] | 0.316 to 3.16 µM | 
19 | Cc1ccc([C@@H](C)Nc2ncnc3c(S(=O)(=O)N4CCOCC4)cc(-c4ccc(F)cc4)cc23)nn1 [Example 10, (R)-6-(4-fluorophenyl)-N-(1-(6-methylpyridazin-3-yl)ethyl)-8-(morpholinosulfonyl)quinazolin-4-amine] | 0.316 to 3.16 µM | 
20 | Cc1nnc(C(C)Nc2ncnc3c(S(=O)(=O)N(C)C)cc(-c4ccc(F)cc4)cc23)s1 (stereo not drawn) [Example 14, 6-(4-fluorophenyl)-N,N-dimethyl-4-((1-(5-methyl-1,3,4-thiadiazol-2-yl)ethyl)amino)quinazoline-8-sulfonamide] | < 0.316 µM | 
21 | Cc1nnc(C(C)Nc2ncnc3c(S(=O)(=O)N4CCOCC4)cc(-c4ccc(F)cc4)cc23)s1 (racemic) [Example 12, (Rac)-6-(4-fluorophenyl)-N-(1-(5-methyl-1,3,4-thiadiazol-2-yl)ethyl)-8-(morpholinosulfonyl)quinazolin-4-amine] | < 0.316 µM | 
22 | Cc1ccc(CNc2ncnc3c(OCC(F)F)cc(-c4ccc(F)cn4)cc23)nn1 [Example 4, 8-(2,2-difluoroethoxy)-6-(5-fluoropyridin-2-yl)-N-((6-methylpyridazin-3-yl)methyl)quinazolin-4-amine] | 0.316 to 3.16 µM | 
23 | Cc1ccc([C@@H](C)Nc2ncnc3c(S(=O)(=O)N4CCNCC4)cc(-c4ccc(F)cc4)cc23)nn1 [Example 24, (R)-6-(4-fluorophenyl)-N-(1-(6-methylpyridazin-3-yl)ethyl)-8-(piperazin-1-ylsulfonyl)quinazolin-4-amine] | 0.316 to 3.16 µM | 
24 | Cc1ccc(-c2cc(OCC(F)F)c3ncnc(NCc4ccc(C)nn4)c3c2)nc1 [Example 8, 8-(2,2-Difluoroethoxy)-N-((6-methylpyridazin-3-yl)methyl)-6-(5-methylpyridin-2-yl) quinazolin-4-amine] | < 0.316 µM | 
